ChEMBL document CHEMBL1909590, “Design, synthesis and docking studies of new quinoline-3-carbohydrazide derivatives as antitubercular agents” (2011)
≈ marks a conversion by molar mass, not a printed value.

Columns and labels:
Type in all cases: functional
[1] = test system: Mycolicibacterium smegmatis; test: Antimycobacterial activity against Mycobacterium smegmatis MC2 ATCC 19420 using compound level ranging from 1 to 100 ug/mL after 7 days by resazurin reduction test; details: MC2 ATCC 19420, 168 h
[2] = test system: Staphylococcus aureus; test: Antibacterial activity against Staphylococcus aureus ATCC 25923 after 18 to 25 hrs by serial plate dilution method
[3] = test system: Mycolicibacterium fortuitum; test: Antimycobacterial activity against Mycobacterium fortuitum ATCC 19542 using compound level ranging from 1 to 100 ug/mL after 7 days by resazurin reduction test; details: ATCC 19542, 168 h
[4] = test system: Streptococcus pyogenes; test: Antibacterial activity against Streptococcus pyogenes clinical isolate after 18 to 25 hrs by serial plate dilution method
[5] = test system: Klebsiella pneumoniae; test: Antibacterial activity against Klebsiella pneumoniae clinical isolates after 18 to 25 hrs by serial plate dilution method
[6] = test system: Escherichia coli; test: Antibacterial activity against Escherichia coli ATCC 25922 after 18 to 25 hrs by serial plate dilution method
[7] = test system: Mycobacterium tuberculosis; test: Growth inhibition of Mycobacterium tuberculosis H37Rv ATCC 27294 using compound level ranging from 1 to 100 ug/mL after 7 days by resazurin reduction test
[8] = test system: Pseudomonas aeruginosa; test: Antibacterial activity against Pseudomonas aeruginosa ATCC 27853 after 18 to 25 hrs by serial plate dilution method
[9] = test system: Mycobacterium tuberculosis; test: Antimycobacterial activity against Mycobacterium tuberculosis H37Rv ATCC 27294 using compound level ranging from 1 to 100 ug/mL after 7 days by resazurin reduction test; details: H37Rv ATCC 27294, 168 h
[10] = test system: Mycobacterium tuberculosis; test: Antimycobacterial activity against Mycobacterium tuberculosis H37Rv ATCC 27294 using compound level ranging from 0.3125 to 5 ug/mL after 7 days by resazurin reduction test; details: H37Rv ATCC 27294, 168 h
[11] = test system: Mycolicibacterium smegmatis; test: Antimycobacterial activity against Mycobacterium smegmatis MC2 ATCC 19420 using compound level ranging from 0.3125 to 5 ug/mL after 7 days by resazurin reduction test; details: MC2 ATCC 19420, 168 h
[12] = test system: Mycolicibacterium fortuitum; test: Antimycobacterial activity against Mycobacterium fortuitum ATCC 19542 using compound level ranging from 0.3125 to 5 ug/mL after 7 days by resazurin reduction test; details: ATCC 19542, 168 h

## CSc1ccccc1/C=N/NC(=O)c1cnc2c(C(F)(F)F)cccc2c1O
[1]
  MIC: > 100 µg/mL
[2]
  MIC: 1.6 µg/mL (≈ 3.95 µM)
[3]
  MIC: > 100 µg/mL
[4]
  MIC: 3.12 µg/mL (≈ 7.7 µM)
[5]
  MIC: 3.12 µg/mL (≈ 7.7 µM)
[6]
  MIC: 6.25 µg/mL (≈ 15.4 µM)
[7]
  growth inhibition (GI): 0%
[8]
  MIC: 3.12 µg/mL (≈ 7.7 µM)
[9]
  MIC: > 100 µg/mL

## O=C(N/N=C/c1ccc(OC(F)(F)C(F)F)cc1)c1cnc2c(C(F)(F)F)cccc2c1O
[1]
  MIC: 10 µg/mL (≈ 21 µM)
[2]
  MIC: 3.12 µg/mL (≈ 6.56 µM)
[10]
  MIC: 5 µg/mL (≈ 10.5 µM)
[3]
  MIC: > 100 µg/mL
[4]
  MIC: 12.5 µg/mL (≈ 26.3 µM)
[5]
  MIC: 3.12 µg/mL (≈ 6.56 µM)
[11]
  MIC: 10 µg/mL (≈ 21 µM)
[6]
  MIC: 6.25 µg/mL (≈ 13.1 µM)
[7]
  growth inhibition (GI): <90%
[8]
  MIC: 6.25 µg/mL (≈ 13.1 µM)
[9]
  MIC: 10 µg/mL (≈ 21 µM)

## COc1ccc2[nH]cc(/C=N/NC(=O)c3cnc4c(C(F)(F)F)cccc4c3O)c2c1
[1]
  MIC: 10 µg/mL (≈ 23.3 µM)
[12]
  MIC: 10 µg/mL (≈ 23.3 µM)
[2]
  MIC: 0.8 µg/mL (≈ 1.87 µM)
[10]
  MIC: 0.625 µg/mL (≈ 1.46 µM)
[3]
  MIC: 10 µg/mL (≈ 23.3 µM)
[4]
  MIC: 0.4 µg/mL (≈ 0.934 µM)
[5]
  MIC: 0.1 µg/mL (≈ 0.233 µM)
[11]
  MIC: 10 µg/mL (≈ 23.3 µM)
[6]
  MIC: 0.1 µg/mL (≈ 0.233 µM)
[7]
  growth inhibition (GI): 95%
[8]
  MIC: 0.4 µg/mL (≈ 0.934 µM)
[9]
  MIC: 1 µg/mL (≈ 2.33 µM)

## O=C(NNC(=S)Nc1cccc(Cl)c1)c1cnc2c(C(F)(F)F)cccc2c1O
[1]
  MIC: 10 µg/mL (≈ 22.7 µM)
[2]
  MIC: 0.8 µg/mL (≈ 1.81 µM)
[10]
  MIC: 2.5 µg/mL (≈ 5.67 µM)
[3]
  MIC: > 100 µg/mL
[4]
  MIC: 1.6 µg/mL (≈ 3.63 µM)
[5]
  MIC: 3.12 µg/mL (≈ 7.08 µM)
[11]
  MIC: 2.5 µg/mL (≈ 5.67 µM)
[6]
  MIC: 3.12 µg/mL (≈ 7.08 µM)
[7]
  growth inhibition (GI): <90%
[8]
  MIC: 3.12 µg/mL (≈ 7.08 µM)
[9]
  MIC: 10 µg/mL (≈ 22.7 µM)

## O=C(NNC(=O)c1cnc2c(C(F)(F)F)cccc2c1O)Nc1cccc(Cl)c1
[1]
  MIC: > 100 µg/mL
[2]
  MIC: 0.8 µg/mL (≈ 1.88 µM)
[10]
  MIC: 10 µg/mL (≈ 23.5 µM)
[3]
  MIC: > 100 µg/mL
[4]
  MIC: 0.4 µg/mL (≈ 0.942 µM)
[5]
  MIC: 0.8 µg/mL (≈ 1.88 µM)
[6]
  MIC: 3.12 µg/mL (≈ 7.35 µM)
[7]
  growth inhibition (GI): <90%
[8]
  MIC: 1.6 µg/mL (≈ 3.77 µM)
[9]
  MIC: 10 µg/mL (≈ 23.5 µM)

## Cc1cc(C)cc(NC(=O)NNC(=O)c2cnc3c(C(F)(F)F)cccc3c2O)c1
[1]
  MIC: > 100 µg/mL
[2]
  MIC: 0.8 µg/mL (≈ 1.91 µM)
[10]
  MIC: 2.5 µg/mL (≈ 5.98 µM)
[3]
  MIC: > 100 µg/mL
[4]
  MIC: 1.6 µg/mL (≈ 3.82 µM)
[5]
  MIC: 3.12 µg/mL (≈ 7.46 µM)
[6]
  MIC: 3.12 µg/mL (≈ 7.46 µM)
[7]
  growth inhibition (GI): <90%
[8]
  MIC: 3.12 µg/mL (≈ 7.46 µM)
[9]
  MIC: 10 µg/mL (≈ 23.9 µM)

## O=C(N/N=C/c1ccncc1)c1cnc2c(C(F)(F)F)cccc2c1O
[1]
  MIC: > 100 µg/mL
[2]
  MIC: 6.25 µg/mL (≈ 17.3 µM)
[3]
  MIC: > 100 µg/mL
[4]
  MIC: 12.5 µg/mL (≈ 34.7 µM)
[5]
  MIC: 6.25 µg/mL (≈ 17.3 µM)
[6]
  MIC: 12.5 µg/mL (≈ 34.7 µM)
[7]
  growth inhibition (GI): 0%
[8]
  MIC: 12.5 µg/mL (≈ 34.7 µM)
[9]
  MIC: > 100 µg/mL

## COc1ccc(NC(=S)NNC(=O)c2cnc3c(C(F)(F)F)cccc3c2O)cc1
[1]
  MIC: > 100 µg/mL
[2]
  MIC: 1.6 µg/mL (≈ 3.67 µM)
[10]
  MIC: 5 µg/mL (≈ 11.5 µM)
[3]
  MIC: > 100 µg/mL
[4]
  MIC: 0.8 µg/mL (≈ 1.83 µM)
[5]
  MIC: 3.12 µg/mL (≈ 7.15 µM)
[6]
  MIC: 6.25 µg/mL (≈ 14.3 µM)
[7]
  growth inhibition (GI): <90%
[8]
  MIC: 1.6 µg/mL (≈ 3.67 µM)
[9]
  MIC: 10 µg/mL (≈ 22.9 µM)

## O=C(O)c1cn(C2CC2)c2cc(N3CCNCC3)c(F)cc2c1=O [CIPROFLOXACIN]
[2]
  MIC: 1 µg/mL (≈ 3.02 µM)
[8]
  MIC: 0.4 µg/mL (≈ 1.21 µM)

## Cc1[nH]cnc1/C=N/NC(=O)c1cnc2c(C(F)(F)F)cccc2c1O
[1]
  MIC: 1 µg/mL (≈ 2.75 µM)
[12]
  MIC: 12.5 µg/mL (≈ 34.4 µM)
[2]
  MIC: 0.8 µg/mL (≈ 2.2 µM)
[10]
  MIC: 1.25 µg/mL (≈ 3.44 µM)
[3]
  MIC: 10 µg/mL (≈ 27.5 µM)
[4]
  MIC: 1.6 µg/mL (≈ 4.4 µM)
[5]
  MIC: 0.1 µg/mL (≈ 0.275 µM)
[11]
  MIC: 1.25 µg/mL (≈ 3.44 µM)
[6]
  MIC: 0.4 µg/mL (≈ 1.1 µM)
[7]
  growth inhibition (GI): 90%
[8]
  MIC: 0.4 µg/mL (≈ 1.1 µM)
[9]
  MIC: 1 µg/mL (≈ 2.75 µM)

## O=C(N/N=C/c1cc(F)ccc1O)c1cnc2c(C(F)(F)F)cccc2c1O
[1]
  MIC: 10 µg/mL (≈ 25.4 µM)
[12]
  MIC: 10 µg/mL (≈ 25.4 µM)
[2]
  MIC: 0.8 µg/mL (≈ 2.03 µM)
[10]
  MIC: 2.5 µg/mL (≈ 6.36 µM)
[3]
  MIC: 10 µg/mL (≈ 25.4 µM)
[4]
  MIC: 0.8 µg/mL (≈ 2.03 µM)
[5]
  MIC: 0.1 µg/mL (≈ 0.254 µM)
[11]
  MIC: 10 µg/mL (≈ 25.4 µM)
[6]
  MIC: 0.1 µg/mL (≈ 0.254 µM)
[7]
  growth inhibition (GI): <90%
[8]
  MIC: 0.4 µg/mL (≈ 1.02 µM)
[9]
  MIC: 10 µg/mL (≈ 25.4 µM)

## Cc1ccc(NC(=S)NNC(=O)c2cnc3c(C(F)(F)F)cccc3c2O)cc1
[1]
  MIC: > 100 µg/mL
[2]
  MIC: 1.6 µg/mL (≈ 3.81 µM)
[3]
  MIC: > 100 µg/mL
[4]
  MIC: 3.12 µg/mL (≈ 7.42 µM)
[5]
  MIC: 12.5 µg/mL (≈ 29.7 µM)
[6]
  MIC: 12.5 µg/mL (≈ 29.7 µM)
[7]
  growth inhibition (GI): 0%
[8]
  MIC: 6.25 µg/mL (≈ 14.9 µM)
[9]
  MIC: > 100 µg/mL

## NNC(=O)c1ccncc1 [ISONIAZID]
[1]
  MIC: 50 µg/mL (≈ 365 µM)
[12]
  MIC: 12.5 µg/mL (≈ 91.1 µM)
[10]
  MIC: 0.7 µg/mL (≈ 5.1 µM)
[3]
  MIC: 12.5 µg/mL (≈ 91.1 µM)
[11]
  MIC: 50 µg/mL (≈ 365 µM)
[7]
  growth inhibition (GI): 95%
[9]
  MIC: 0.7 µg/mL (≈ 5.1 µM)

## O=C(NNC(=S)Nc1cccnc1)c1cnc2c(C(F)(F)F)cccc2c1O
[1]
  MIC: > 100 µg/mL
[2]
  MIC: 6.25 µg/mL (≈ 15.3 µM)
[3]
  MIC: > 100 µg/mL
[4]
  MIC: 12.5 µg/mL (≈ 30.7 µM)
[5]
  MIC: 6.25 µg/mL (≈ 15.3 µM)
[6]
  MIC: 3.12 µg/mL (≈ 7.66 µM)
[7]
  growth inhibition (GI): 0%
[8]
  MIC: 12.5 µg/mL (≈ 30.7 µM)
[9]
  MIC: > 100 µg/mL
